By IC50 is commonly meant the concentration that gives 50% inhibition.

The assay deals with TNFα trimer (Homo sapiens, UniProt P01375). Kind of assay: TNFα FP Competitive Binding Assay. Particulars: FP binding assay; 20 nM TNFα trimer, 1 nM OregonGreen488 probe; read-out: TNF IC50. In outline:
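Fluorescence polarization competition: 20 nM TNFα trimer with 1 nM fluorescein-labelled probe in HEPES/NaCl/EDTA/Triton X-100 buffer, compound in 12-point 1:3 dilutions (final top 338 μM or 100 μM). Incubated 18-24 h, background-subtracted mP read, variable-slope dose-response fitting.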

Molecules are shown by their SMILES.

Chain of TNFα trimer (P01375 77-233 limits assumed): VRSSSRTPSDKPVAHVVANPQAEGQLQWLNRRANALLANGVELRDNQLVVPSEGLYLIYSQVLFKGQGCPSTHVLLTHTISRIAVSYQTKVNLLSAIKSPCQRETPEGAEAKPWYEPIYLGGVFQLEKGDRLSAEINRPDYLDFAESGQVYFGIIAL

As for `Cc1ccc(OC(F)F)c(Cn2c3cc(-c4cnc(N5CCN(C(=O)CC#N)[C@H](C)C5)nc4)ccc3c(=O)n2C)c1` [Example 21.4], the IC50 was less than 1000 nM.
In the case of `C[C@@H]1CN(c2ncc(-c3ccc4c(=O)n(C)n(Cc5ccccc5OC(F)F)c4c3)cn2)CCN1C(=O)[C@@H](O)CO` [Example 38, 1-(2-(Difluoromethoxy)benzyl)-6-(2-((R)-4-((S)-2,3-dihydroxypropanoyl)-3-methylpiperazin-1-yl)pyrimidin-5-yl)-2-methyl-1H-indazol-3(2H)-one], the IC50 is less than 1000 nM.
The value for `CC(c1c(F)cccc1F)n1c2cc(-c3cnc(N4CCN(C(=O)CO)[C@H](C)C4)nc3)ccc2c(=O)n1C` (stereo partly drawn) [Example 28.1, 1-(1-(2,6-Difluorophenyl)ethyl)-6-(2-((R)-4-(2-hydroxyacetyl)-3-methylpiperazin-1-yl)pyrimidin-5-yl)-2-methyl-1H-indazol-3(2H)-one] was less than 1000 nM; that for `Cn1c(=O)c2ccc(-c3cnc(C(C)(C)O)nc3)cc2n1Cc1cc(Cn2cncn2)ccc1OC(F)F` [Example 104] was less than 1000 nM; that for `Cn1c(=O)c2ccc(-c3cnc(NC4CCCCNC4=O)nc3)cc2n1Cc1ccccc1OC(F)F` (stereo not shown) [Example 2.19] was 1000 to 10000 nM.
As for `Cc1ccc(OC(F)F)c(Cn2c3cc(-c4cnc(N5CCN6C(=O)OC[C@H]6C5)nc4)ccc3c(=O)n2C)c1` [Example 22.12], the IC50 is less than 1000 nM.
As for `CC(=O)N1CCN(c2ncc(-c3ccc4c(=O)n(C)n(Cc5cc(CC(C)O)ccc5OC(F)F)c4c3)cn2)C[C@H]1C` (stereo partly drawn) [Example 114, 6-(2-((R)-4-Acetyl-3-methylpiperazin-1-yl)pyrimidin-5-yl)-1-(2-(difluoromethoxy)-5-(2-hydroxypropyl)benzyl)-2-methyl-1H-indazol-3(2H)-one], the IC50 was 1000 to 10000 nM.
The figure for `C[C@@H]1CN(C(=O)CO)CCN1c1ncc(-c2ccc3c(=O)n(C)n(Cc4ccccc4OC(F)F)c3c2)cn1` [Example 10.14] is less than 1000 nM; for `Cc1ccc(C)c(Cn2c3cc(-c4cnc(N5CCOCC5)nc4)ccc3c(=O)n2C)c1` [Example 1.19] it is less than 1000 nM; for `CC(=O)N1CCN(c2ncc(-c3ccc4c(=O)n(C)n(Cc5nc(C)ccc5C(F)(F)F)c4n3)cn2)C[C@H]1C` [Example 73, (R)-6-(2-(4-Acetyl-3-methylpiperazin-1-yl)pyrimidin-5-yl)-2-methyl-1-((6-methyl-3-(trifluoromethyl)pyridin-2-yl)methyl)-1H-pyrazolo[3,4-b]pyridin-3(2H)-one] it is less than 1000 nM.
In the case of `Cc1ccc(C(F)(F)F)c(Cn2c3cc(-c4cnc(N5CCN6C(=O)NC[C@H]6C5)nc4)ccc3c(=O)n2C)c1` [Example 29.3], the IC50 was less than 1000 nM.
For the compound `Cn1cc(C(F)(F)F)c(Cn2c3cc(-c4cnc(N5CCN6C(=O)NC[C@H]6C5)nc4)ccc3c(=O)n2C)n1` [Example 72, (S)-7-(5-(2-methyl-1-((1-methyl-4-(trifluoromethyl)-1H-pyrazol-3-yl)methyl)-3-oxo-2,3-dihydro-1H-indazol-6-yl)pyrimidin-2-yl)hexahydroimidazo[1,5-a]pyrazin-3(2H)-one], the IC50 is 1000 to 10000 nM.
In the case of `CC(=O)N1CCN(c2ncc(-c3ccc4c(=O)n(C)n(Cc5cc(CO)ccc5OC(F)F)c4c3)cn2)CC1` [Example 16.8], the IC50 is less than 1000 nM.
Regarding `Cn1c(=O)c2ccc(-c3cnc(C(C)(C)O)nc3)cc2n1Cc1cn(Cc2ccnnc2)cc1C(F)(F)F` [Example #128, 6-(2-(2-Hydroxypropan-2-yl)pyrimidin-5-yl)-2-methyl-1-((1-(pyridazin-4-ylmethyl)-4-(trifluoromethyl)-1H-pyrrol-3-yl)methyl)-1H-indazol-3(2H)-one], the concentration for half-maximal inhibition (IC50) was in the range of 1000 to 10000 nM.
The figure for `C[C@@H]1CN(c2ncc(-c3ccc4c(=O)n(C)n(Cc5ccccc5Cl)c4c3F)cn2)CCN1C(=O)CO` [Example 24.5] is less than 1000 nM.
In the case of `CC(=O)N1CCC(Oc2cc(-c3ccc4c(=O)n(C)n(Cc5ccccc5OC(F)F)c4c3)ccn2)CC1` [Example 10.12], the IC50 lay within 1000 to 10000 nM.
For `C[C@@H]1CN(c2ncc(-c3nc4c(cc3F)c(=O)n(C)n4Cc3ccccc3OC(F)F)cn2)CCN1C(=O)CO` [Example 24.11], the IC50 was less than 1000 nM.
The figure for `CN1CC(CNc2ncc(-c3ccc4c(=O)n(C)n(Cc5ccccc5OC(F)F)c4c3)cn2)CC1=O` (stereo not shown) [Example 2.16] is 1000 to 10000 nM; for `Cn1c(=O)c2ccc(-c3cnc(N4CC(CC(=O)O)C4)nc3)cc2n1Cc1ccccc1OC(F)F` [Example 2.18] it is greater than 10000 nM; for `Cc1nc(N2CCN(C(=O)CO)C[C@H]2C)ncc1-c1ccc2c(=O)n(C)n(Cc3ccccc3OC(F)F)c2c1` [Example 10.10] it is less than 1000 nM.
Consider `C[C@@H]1CN(c2ncc(-c3ccc4c(=O)n(C)n(Cc5ccccc5OC(F)F)c4c3)cn2)CCN1C(=O)[C@H](O)CC(=O)O` [Example 50, (R)-4-((R)-4-(5-(1-(2-(Difluoromethoxy)benzyl)-2-methyl-3-oxo-2,3-dihydro-1H-indazol-6-yl)pyrimidin-2-yl)-2-methylpiperazin-1-yl)-3-hydroxy-4-oxobutanoic acid], for which the IC50 is less than 1000 nM.
For the compound `Cn1c(=O)c2ccc(-c3cnc(N4CCN(C=O)CC4)nc3)cc2n1Cc1cc(CO)ccc1OC(F)F` [Example 29, 4-(5-(1-(2-(Difluoromethoxy)-5-(hydroxymethyl)benzyl)-2-methyl-3-oxo-2,3-dihydro-1H-indazol-6-yl)pyrimidin-2-yl)piperazine-1-carbaldehyde], the IC50 was less than 1000 nM.
Take `Cc1ccc(OC(F)F)c(Cn2c3cc(-c4cnn5c(C(C)O)cnc5c4)ccc3c(=O)n2C)c1` (racemic) [Example 106, 1-(2-(Difluoromethoxy)-5-methylbenzyl)-6-(3-(1-hydroxyethyl)imidazo[1,2-b]pyridazin-7-yl)-2-methyl-1H-indazol-3(2H)-one]: the half-inhibitory concentration (IC50) is less than 1000 nM.
In the case of `Cn1c(=O)c2ccc(-c3ccnc(OC4CCCOC4)c3)cc2n1Cc1ccccc1OC(F)F` (stereo not shown) [Example 10.13], the IC50 fell in the range of 1000 to 10000 nM.
Take `CC(=O)N1CCN(c2ncc(-c3ccc4c(=O)n(C)n(Cc5nc(C)ccc5C(F)(F)F)c4c3)cn2)C[C@H]1C` [Example 19.1]: the IC50 was less than 1000 nM.
The figure for `C[C@@H]1CN(c2ncc(-c3ccc4c(=O)n(C)n([C@@H](C)c5c(F)cccc5F)c4c3)cn2)CCN1C(=O)CO` (single isomer, unassigned) [Example 58] is less than 1000 nM; for `CC(=O)N1CCN(c2ncc(-c3ccc4c(=O)n(C)n(Cc5cc(CN6CCN(C)C6=O)ccc5OC(F)F)c4c3)cn2)C[C@H]1C` [Example #129*, (R)-6-(2-(4-Acetyl-3-methylpiperazin-1-yl)pyrimidin-5-yl)-1-(2-(difluoromethoxy)-5-((3-methyl-2-oxoimidazolidin-1-yl)methyl)benzyl)-2-methyl-1H-indazol-3(2H)-one] it is 1000 to 10000 nM.
As to `Cc1cc2c(=O)n(C)n(Cc3ccccc3OC(F)F)c2cc1-c1cnc(N2CCOCC2)nc1` [Example 13.1], the IC50 was less than 1000 nM.
Consider `COc1c[nH]nc1Cn1cc(Cn2c3cc(-c4cnc(C(C)(C)O)nc4)ccc3c(=O)n2C)c(C(F)(F)F)c1` [Example #130, 6-(2-(2-Hydroxypropan-2-yl)pyrimidin-5-yl)-1-((1-((4-methoxy-1H-pyrazol-3-yl)methyl)-4-(trifluoromethyl)-1H-pyrrol-3-yl)methyl)-2-methyl-1H-indazol-3(2H)-one], for which the IC50 is less than 1000 nM.
Take `Cn1c(=O)c2ccc(-c3cnc(N4CC[C@H](C(=O)O)C4)nc3)cc2n1Cc1ccccc1OC(F)F` [Example 2.15]: the IC50 was greater than 10000 nM.
For `Cn1c(=O)c2ccc(-c3cnc(C(C)(C)O)nc3)cc2n1Cc1cc(Cn2cn[nH]c2=O)ccc1OC(F)F` [Example 92, 1-(2-(Difluoromethoxy)-((5-oxo-1H-1,2,4-triazol-4(5H)-yl)methy)benzyl)-6-(2-(2-hydroxypropan-2-yl)pyrimidin-5-yl)-2-methyl-1H-indazol-3(2H)-one], the IC50 fell in the range of 1000 to 10000 nM.
Regarding `Cc1ccc(OC(F)F)c(Cn2c3cc(-c4cnc(C5(C)CCN(C)C5)nc4)ccc3c(=O)n2C)c1` (stereo not shown) [Example 88, 1-(2-(Difluoromethoxy)-5-methylbenzyl)-6-(2-(1,3-dimethylpyrrolidin-3-yl)pyrimidin-5-yl)-2-methyl-1H-indazol-3(2H)-one], the IC50 was in the range of 1000 to 10000 nM.
The value for `Cn1c(=O)c2ccc(-c3cnc(C(C)(C)O)nc3)cc2n1Cc1cc(CO)ccc1OC(F)F` [Example 16.7] was less than 1000 nM; that for `Cn1c(=O)c2ccc(-c3cnc(C(C)(C)O)nc3)cc2n1Cc1cc(NC2CCCc3c[nH]nc32)ccc1Cl` (stereo not shown) [Example 44, 1-(2-Chloro-5-((4,5,6,7-tetrahydro-1H-indazol-7-yl)amino)benzyl)-6-(2-(2-hydroxypropan-2-yl)pyrimidin-5-yl)-2-methyl-1H-indazol-3(2H)-one] was less than 1000 nM.
For `Cn1c(=O)c2ccc(-c3cnc(N4CCN5C(=O)OC[C@H]5C4)nc3)cc2n1Cc1ccccc1OC(F)F` [Example 2.25], the IC50 is less than 1000 nM.
Regarding `Cc1ccc(C(F)(F)F)c(Cn2c3cc(-c4cnc(N5CCN(C(=O)CO)C[C@H]5C)nc4)ccc3c(=O)n2C)n1` [Example 19.5], the IC50 is less than 1000 nM.
`Cn1c(=O)c2ccc(-c3cnc(N4CCN5C(=O)NC[C@H]5C4)nc3)cc2n1Cc1cc(Cl)ccc1C(F)(F)F` [Example 29.5]: the IC50 was less than 1000 nM.
As to `Cn1c(=O)c2ccc(-c3cnc(N4CCOCC4)nc3)cc2n1Cc1ccccc1F` [Example 1.15], the IC50 lay within 1000 to 10000 nM.
Turning to `Cn1c(=O)c2ccc(-c3cnc(N4CC(O)C4)nc3)cc2n1Cc1ccccc1OC(F)F` [Example 2.9], the IC50 lay within 1000 to 10000 nM.
The figure for `Cn1c(=O)c2ccc(-c3cnc(N4CCN5C(=O)NC[C@@H]5C4)nc3)cc2n1Cc1c(CO)cccc1OC(F)F` [Example 66, (R)-7-(5-(1-(2-(difluoromethoxy)-6-(hydroxymethyl)benzyl)-2-methyl-3-oxo-2,3-dihydro-1H-indazol-6-yl)pyrimidin-2-yl)hexahydroimidazo[1,5-a]pyrazin-3(2H)-one] is less than 1000 nM.

The values above are taken from patent publication US10160748B2 (AbbVie Inc., priority 2015, dated 2018).
